Data set [1] can be described thus: Chloroacetamide addition kinetics with N-terminal Abu peptide CGK-5Abu. The conditions noted are these: 500 μM peptide; CGK-5Abu vs CGK-5. The source says:
While pCAmCP and mCAmCP gave efficient cyclization of the peptide fusion of sfGFP, we looked to further investigate the specificity of the reaction using peptide kinetic assays. To do this, we first established reactivity of the compounds with a model peptide (CGK-5, Figures 3A and S16) that was composed of two cysteines flanking a region tuned for solubility in buffer (GGKGG) and with a tryptophan residue on the C-terminus for UV absorbance. […] To test the specificity of the reaction for the N-terminal cysteine, we synthesized a peptide analogue (CGK-5Abu, Figures 3D–F and S17) that contained 2-aminobutyric acid in place of the N-terminal cysteine. […] Since these reactions occurred at 500 μM of peptide to allow for analysis on the HPLC, we envision this difference will likely be exaggerated when using lower peptide/protein concentrations. Although it is unlikely at neutral pH, the chloroacetamide moiety can possibly react with nucleophilic amino acids other than cysteine. […]
The peptide (CGK-5 or CGK-5Abu, 5 mM stock in water) was diluted to 500 μM in ammonium bicarbonate buffer (50 mM, pH 7.5) containing 1.2 mM TCEP. […] Following dilution with 20 μL of water, the sample was then analyzed on a Shimadzu HPLC with an LCMS-2020 mass spectrometer attached (10–40% ACN gradient in H2O over 6 min, 0.1% formic acid, 1 mL/min flow rate, Shimadzu C18 250 × 4.6 mm, 5 μm). […]

The target of data set [2] is T1, ZNRF3 extracellular domain (ZNRF3-ECD) (Homo sapiens, UniProt Q9ULT6).
T1 construct: The ZNRF3 ECD was expressed and characterized exactly as previously described; SUMO (N, cleaved yes); made in house; host or cells: E. coli BL21, co-expressing BirA
T1 sequence (Q9ULT6 56-219 limits assumed): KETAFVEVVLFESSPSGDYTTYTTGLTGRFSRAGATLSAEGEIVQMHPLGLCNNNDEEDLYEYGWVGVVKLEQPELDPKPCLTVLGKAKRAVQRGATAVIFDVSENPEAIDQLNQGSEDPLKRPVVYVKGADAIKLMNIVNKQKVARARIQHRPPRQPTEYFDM
Put plainly: Phage selection against ZNRF3-ECD, NGS enrichment, mCAmCP-cyclized library. It counts as binding. The source says:
In addition to simply ensuring the cyclization potential on phage, we also looked to investigate the selection differences using two different linkers to macrocyclize the same initial peptide library. ZNRF3 is a membrane protein that contains an intracellular E3 ligase domain and has previously shown potential in promoting degradation of oncogenic membrane proteins, such as PDL1.[32] ZNRF3 also plays a major role in the regulation of the Wnt signaling cascade, which can modulate a variety of cell processes related to oncogenesis and cell differentiation.[33]−[36] […] Because it has an extracellular domain that can be easily accessible to macrocyclic peptides, we envisioned that a selection against the extracellular domain for ZNRF3 (ZNRF3-ECD) would afford peptides that could potentially be used in the development of proteolysis-targeting chimeras (PROTACs) for a variety of membrane proteins. We expressed and characterized a biotinylated ZNRF3-ECD using an Avi-Tag on the […] to facilitate the selection using streptavidin magnetic beads, as has been previously described (Figure S20).[38] […] To avoid the potential for enriching peptides that bind to the streptavidin resin, we alternated loading the protein using streptavidin and NHS-functionalized magnetic beads for the first three rounds of selection (Figure 5).
The purified phage library (10^11 to 10^12 cfu) in binding buffer was incubated with 1 mM TCEP at 37 °C. After 30 min, the linker (pCAmCP or mCAmCP, 10 mM in DMSO) was added to a final concentration of 100 μM. The solution was incubated for 24 h at RT with slow rotation. The library was then directly used for affinity selection without further purification.
Streptavidin-coated magnetic beads (100 μL, 50% slurry, Cytiva Sera-Mag) were transferred to a 1.5 mL tube, washed three times with 1 mL of binding buffer (10 mM HEPES, 150 mM NaCl, 10 mM MgCl2, and 1 mM KCl, pH 7.4), resuspended in 100 μL of binding buffer, and split into two tubes. […]

Data set [3] in a line: Solubility observation for synthesized peptides. The data set is classed as physicochemical. The conditions noted are these: observed at synthesis / BLI testing.
In data set [4] the target is T1, ZNRF3 extracellular domain (ZNRF3-ECD). The data set is described as follows: Biolayer interferometry (BLI) binding to immobilized biotinylated ZNRF3-ECD. The conditions noted are these: pH 7.5, dissociation over 5 min. As for the experimental part: The ZNRF3 ECD was expressed and characterized exactly as previously described.[38] Plasmid pET28a-SUMO-ZNRF3-Avi was cotransformed into E. coli (BL21) along with a plasmid expressing BirA. The cells were then inoculated into 2× YT containing 50 μg/mL kanamycin and 34 μg/mL chloramphenicol and grown at 37 °C until OD = 0.5. Expression was then induced by the addition of 1 mM IPTG and 50 μM biotin, and then the protein was expressed for 18 h at 16 °C. The cells were then pelleted (3750g, 15 min) and then resuspended in buffer A (50 mM Tris-HCl, 10% glycerol, 150 mM NaCl, and 25 mM imidazole, pH 7.5, 20 mL/liter of expression). The cells were then lysed by sonication (1 s on, 1 s off, 5 min, 60% A, repeated once), and the lysate was clarified by centrifugation (25,000g, 20 min). The supernatant was then incubated with a Ni-NTA column for 45 min at 4 °C. The column was then washed with 5 CV of buffer A before being eluted using 2 CV of buffer B (buffer A + 240 mM imidazole). The elution was then concentrated using an Amicon centrifugal filter before being desalted into buffer A on a HiPrep 26/10 column. The SUMO tag was then cleaved by the addition of 30 μg/mL SUMO protease and incubation for 48 h at 4 °C. The protein was then loaded onto a second Ni-NTA column for 45 min at 4 °C, and the flowthrough was collected and concentrated to 1 mL by centrifugation. Pure protein was then isolated using size exclusion chromatography (HiLoad 16/600, Superdex 75 pg) in buffer C (50 mM Tris-HCl, pH 7.5, 10% (v/v) glycerol, 150 mM NaCl, and 0.5 mM EDTA). Pure protein was stored in storage buffer (50 mM Tris-HCl, pH 7.5, 50% (v/v) glycerol, and 150 mM NaCl) at −80 °C before being used for assays.
Biolayer interferometry (BLI) experiments were performed using streptavidin-coated biosensors (Sartorius Bio) on an Octet R8 biolayer interferometer (Sartorius Bio). All experiments were performed in assay buffer (10 mM HEPES, 150 mM NaCl, and 0.01% Tween 20, pH 7.5). Biotinylated ZNRF3 (28 μg/mL in assay buffer) was loaded onto the sensor to 4 nm of loading over 10 min, and then the sensors were quenched for one min with a 1% BSA solution in assay buffer. Peptides were serially diluted in assay buffer containing 0.8% DMF, and the association and dissociation to ZNRF3 were measured over 3 and 5 min, respectively. Between each experiment, sensors were regenerated using 10 mM glycine, pH 1.5. Binding curves were double-referenced against a protein-only sensor and a parallel unloaded sensor to correct for any nonspecific binding to the sensors. All curves were fit in the Octet Kinetic Analysis program (Sartorius Bio) using a 1:1 protein/ligand binding model.
For orientation: Biolayer interferometry detects binding as a change in optical thickness at a sensor tip.

The target in data set [5] is T2, ZNRF3 extracellular domain (biotinylated) (UniProt Q9ULT6 56-219, biotin (on the Avi-Tag; co-expression with BirA and 50 uM biotin)).
T2 construct: ZNRF3, extracellular domain; also called ZNRF3-ECD; ZNRF3 ECD; source: E. coli (BL21), co-expressed with BirA, purified (Ni-NTA, SUMO protease, second Ni-NTA, SEC Superdex 75); not shown: Avi-Tag, N-terminal, kept
T2 sequence (looked up): T1 sequence (Q9ULT6 56-219 limits assumed)
Put plainly: BLI; biotinylated ZNRF3-ECD loaded on streptavidin biosensors (Octet R8); peptides serially diluted in 10 mM HEPES, 150 mM NaCl, 0.01% Tween 20, pH 7.5 with 0.8% DMF; association 3 min, dissociation 5 min; double-referenced; 1:1 binding model. The note with it: both partners purified.

Entries after “also recorded” stand apart in the source; their conditions may differ. Starred links: 1 amine or outer side, 2 acyl side, 3 side chain; linkers in the order of their positions; H or OH if unused. Positions of bridges follow the written chain, without caps; N, C: chain ends. Non-standard residues stand in square brackets, D forms with d. Residues, ends and D or L forms follow the SMILES beside them. No end group written: not given here. X2 = O=C([C@@H]1CSC(c2nccc(N[*:1])n2)=N1)[*:2]; Abu = CC[C@H](N)C(=O)O

For “[Abu]GGKGGCGW [CGK-5Abu, peptide analogue with 2-aminobutyric acid in place of the N-terminal cysteine]”, the “rate of reaction relative to the cyclization reaction, fold slower” value in data set [1] is ~3 -fold slower.

Turning to “CELVMMHGYWWRQC (also: sidechain bridge or staple (positions not given here)) [Peptide Z28S2, peptide enriched in the mCAmCP selection]”, the “fold increase in abundance after round 2” value in data set [2] (after round 2) is ~5000 -fold. Further, the “solubility (in words)” value in data set [3] is given as “poor solubility during synthesis”.

As for `CSCC[C@@H]1NC(=O)[C@H](CC(C)C)NC(=O)[C@H](CC(N)=O)NC(=O)[C@H](CCC(=O)O)NC(=O)[C@H](Cc2c[nH]c3ccccc23)NC(=O)[C@H](CC(N)=O)NC(=O)[C@H](CC(C)C)NC(=O)[C@H](CCCNC(=N)N)NC(=O)[C@H](CC(C)C)NC(=O)[C@H](Cc2ccccc2)NC(=O)[C@@H]2CSC(=N2)c2nccc(n2)NC(=O)CSC[C@@H](C(N)=O)NC(=O)[C@H](Cc2c[nH]c3ccccc23)NC(=O)[C@@H]2CCCN2C1=O` [Peptide Z28S1] ({CH2CO}-[X2]FLRLNWENLMPWC-NH2; thioether N-14; C-terminus assumed), in data set [4], the “off rates (in words)” value is listed as “high off rates; also recorded: extremely quick off rates”. Moreover, the “fold enrichment after round 1” value in data set [2] (after round 1) is listed as “over 32,000 -fold”. In addition, the “share of total sequences after round 4” value in data set [2] (round 4, 84,190 total sequences) turned out to be 81%.

The molecule [Abu]HLSPLEAWRQKL[Abu] [Z27S1Abu (linear analogue of Z27S1)] displayed a Kd in data set [5] of 2.6 µM.

By Kd is commonly meant the free concentration of one partner at which half of the binding sites on the other are occupied at equilibrium, for simple one-to-one binding. High values mean lower affinity, low ones higher affinity.

(Values after paper PMC11744668, “2-Cyanopyrimidine-Containing Molecules for N-Terminal Selective Cyclization of Phage-Displayed Peptides” (ACS Chemical Biology, 2025).)
